In article PMC11488110 (Theranostics, 2024):
Entries after “also recorded” stand apart in the source; their conditions may differ.

Experiments:
[1] = Pharmacokinetics in Sprague-Dawley rats; conditions: rat, plasma
[2] = tested on: C57BL/6N mice with scopolamine-induced cognitive impairment; assay: Scopolamine-induced memory impairment mouse model; assay type: in vivo
[3] = tested on: Salmonella typhimurium TA100; assay: Ames MPF mutagenicity assay, TA100; assay type: cell-based
Protocol: (§1) An Ames microplate format (MPF) 98/100 mutagenesis assay kit (Xenometrix) was used to test mutagenic activity. The TA98 / TA100 Salmonella strain was inoculated into the bacterial culture medium and cultured overnight. The Salmonella test strain was then exposed to six concentrations of the test compound (plus positive and negative controls). Samples were prepared in 96-well plates in sterile DMSO. The cultured bacteria, test compound, and S9 mixture were incubated for 90 min at 37 °C in a shaking incubator. The mixture was then treated with an indicator medium and dispensed into 384-well plates. The plates were incubated at 37 °C for 48 h. The number of wells containing revertant colonies was counted for each dose.
(§2) Ta b l e S4 . Tw o -strain Ames mutagenic assess ment of 5a.
(§3) Straina Activity in the absence (-) of S9b Activity in the presence (+) of S9b TA 9 8 Negative (-) Negative (-)
(§4) TA 1 0 0 Negative (-) Negative (-) aSalmonella typhimurium strains TA98 (hi s D3052 mutation) and TA100 (hisG46 mutation) were used to detect frameshift mutations and base- pair substitution mutations, respectively. bAroclor 1254- induced rat liver S9 fraction for exogenous metabolic activation.

[4] = tested on: Salmonella typhimurium TA98; assay: Ames MPF mutagenicity assay, TA98; assay type: cell-based
Protocol: as §1, §2, §3, §4

[5] = Metabolic stability assay in liver microsomes; assay type: in vitro ADME, rat; conditions: 1 μM, 30 min
Protocol: (§5) The metabolic stability assay was performed by incubation of human and selected animal liver microsomes (dog, rat, and mouse) with the test compound at a final concentration of 1 μM, in the presence of 0.5 mg/ml microsomal protein and NADPH-regeneration system, in a total volume of 100 μL phosphate buffer 100 mM (pH 7.4) at 37 °C. The incubation was started by introducing the NADPH-regeneration system and terminated by adding 40 μL of ice-cold acetonitrile at 0- and 30 min. Precipitated proteins were removed by centrifugation at 10,000 g and 4 °C for 5 min. Aliquots of the supernatant were injected onto an LC-MS/MS system. Incubations terminated prior to addition of the NADPH-regeneration system (time point, 0 min) were used as standards, defined as 100%. Percent of the parent compound remaining was calculated by comparing peak areas.
(§6) Ta b l e S2 . CYP inhibition, microsomal stability, and hERG in hibition of 5a .
(§7) CYP inhibitiona Microsomal stabilityb
(§8) ( % of c ont rol ac ti vit y) (% of remaining compound) hERG inhibitionc (IC50, μ M) […]
(§9) aCytochrome P450 (CYP450) enzyme activity was measured by incubating CYP450 enzyme isotype-specific substrates and liver microsomes in the presence of the test compound (10 μM) for 15 min. […]

BV-2 microglial cells [6] = assay: Cytotoxicity assay (EZ-Cytox) in BV-2 microglia; assay type: cell-based, mouse; conditions: up to 20 μM, 24 h
Protocol: The in vitro cytotoxicity of 5a was evaluated using the EZ-Cytox assay kit (DoGenBio, South Korea). […] Absorbance was measured at 450 nm, after 1 h of incubation with EZ-Cytox containing water-soluble tetrazolium salt (WST), using a SpectraMax®i3 microplate reader (Molecular Devices).

primary mouse astrocytes = assay: LPS/IFNγ-induced inflammatory responses in primary mouse astrocytes; assay type: cell-based
BV-2 microglial cells [7] = assay: LPS-induced inflammatory responses in BV-2 microglia; assay type: cell-based, mouse
hPPARα = target: T1, hPPARα (Homo sapiens, UniProt Q07869); assay: In vitro co-transfection (PPRE-luciferase) assay in CV-1 cells, hPPARα; assay type: cell-based; conditions: 24 h, read-out: Potency (EC50) hPPARα
T1 sequence (Q07869 1-468): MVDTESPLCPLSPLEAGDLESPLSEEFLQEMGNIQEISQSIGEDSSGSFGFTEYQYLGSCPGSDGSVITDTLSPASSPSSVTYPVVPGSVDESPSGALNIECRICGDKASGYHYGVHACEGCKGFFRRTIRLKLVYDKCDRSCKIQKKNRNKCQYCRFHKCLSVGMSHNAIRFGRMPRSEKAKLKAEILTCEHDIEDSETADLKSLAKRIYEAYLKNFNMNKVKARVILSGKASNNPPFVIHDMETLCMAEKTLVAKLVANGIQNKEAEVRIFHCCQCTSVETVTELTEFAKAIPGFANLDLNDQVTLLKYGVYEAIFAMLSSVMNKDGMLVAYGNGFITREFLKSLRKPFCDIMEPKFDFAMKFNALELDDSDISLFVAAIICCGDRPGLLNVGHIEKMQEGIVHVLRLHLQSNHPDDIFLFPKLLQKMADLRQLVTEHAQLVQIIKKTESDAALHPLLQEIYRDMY

[8] = Metabolic stability assay in liver microsomes; assay type: in vitro ADME, dog; conditions: 1 μM, 30 min
Protocol: as §5, §6, §7, §8, §9

[9] = 30 mg/kg/day p.o. 5 days before scopolamine 1 mg/kg i.p.

Cc1cc(SCc2[se]c(-c3ccc(C(F)(F)F)cc3)nc2C)ccc1OCC(=O)O [Compound 5a, {2-Methyl-4-[4-methyl-2-(4-trifluoromethyl-phenyl)-selenazol-5-yl-methylsulfanyl]-phenoxy}-acetic acid]
AUC ([1]; iv, 5 mg/kg): 7350 ng·h/mL | Vd ([1]; iv, 5 mg/kg): 2.3 ± 0.1 L/kg | clearance ([1]; iv, 5 mg/kg): 10.2 mL/min/kg | half-life ([1]; iv, 5 mg/kg): 2.3 ± 0.6 h | bioavailability ([1]; oral, 10 mg/kg): 90.7% | AUC ([1]; po, 10 mg/kg): 13300 ng·h/mL | Cmax ([1]; po, 10 mg/kg): 2740 ng/mL | Y-maze spontaneous alternation [2, 9]: prevented the decrease in alternation percentage | Y-maze total number of arm entries [2, 9]: without inducing any changes | Passive avoidance step-through latency ([2]; 30 mg/kg/day p.o., scopolamine 1 mg/kg i.p.): mitigated this effect | Memory in Y-maze, passive avoidance and Morris water maze ([2]; post-administration, 10 mg/kg p.o.): significantly restored the memory impairment | Memory in Y-maze, passive avoidance and Morris water maze ([2]; post-administration, 30 mg/kg p.o.): maximum efficacy | Cognitive improvement compared with GW501516 ([2]; post-administration, same dose 30 mg/kg): superior in vivo efficacy | Ames mutagenic activity in the presence (+) of S9 ([3]; TA100, with rat liver S9): Negative (-); also recorded: lacks mutagenicity | Ames mutagenic activity in the absence (-) of S9 ([3]; TA100, without S9): Negative (-); also recorded: lacks mutagenicity | Ames mutagenic activity in the presence (+) of S9 ([4]; TA98, with rat liver S9): Negative (-); also recorded: lacks mutagenicity | Ames mutagenic activity in the absence (-) of S9 ([4]; TA98, without S9): Negative (-); also recorded: lacks mutagenicity | Microsomal stability, Rat (% of remaining compound) [5]: 73.3 % of remaining compound | Viability of BV-2 cells (BV-2 microglial cells [6]): did not affect the viability; also recorded: less cytotoxic than GW501516 | LPS/IFNγ-induced NO release (primary mouse astrocytes; primary astrocytes): significantly reduced NO release | LPS/IFNγ-induced production of TNF-α, IL-1β and IL-6 (primary mouse astrocytes; primary astrocytes): suppressed the production of pro-inflammatory cytokines | Anti-inflammatory effects on astrocytes compared with GW501516 (primary mouse astrocytes; same concentration): superior to those of GW501516 | LPS-induced mRNA and protein levels of iNOS, TNF-α and IL-6 (BV-2 microglial cells [7]; BV-2, LPS 0.2 μg/mL): reduced the LPS-induced increases | LPS-induced NO production (nitrite) (BV-2 microglial cells [7]; pretreatment 3 h, LPS 0.2 μg/mL 24 h): suppressed | LPS-induced phosphorylation of NF-κB p65 (BV-2 microglial cells [7]; pretreatment 6 h, LPS 1 h): prevented the increase | EC50 (hPPARα): > 10 µM | Microsomal stability, Dog (% of remaining compound) [8]: 91.3 % of remaining compound
